Data on 1 molecule can be found in patent US11944624B2, “Peptide and small molecule agonists of EphA and their uses” (CASE WESTERN RESERVE UNIVERSITY, priority 2017, dated 2024).

The structures appear in SMILES notation.

What all share (format): cell-based
The test system of assay [1] is ERK1/2 and Akt. Kind of assay: Inhibition of ERK1/2 and Akt activation in A172-A2 cells. As to conditions: 50 μM and 100 μM. As for the experimental part:
Cells were plated in 24-well dishes at a density of 100,000 cells/well and grown for 24 hours prior to stimulation with appropriate compounds and ephrins for the given amounts of time. Compounds were prepared in DMSO at 500 times the final concentrations and 0.2% DMSO was used as vehicle control. Following treatment, cells were lysed directly in SDS Gel Loading Buffer and immunoblotted as described previously. Immunoprecipitation and immunofluorescence staining was performed as described. For immunoprecipitation, 300,000 cells/well were plated in 6-well dishes and lysed in modified RIPA Buffer (20 mM Tris-HCl pH 7.4, 20 mM NaF, 150 mM NaCl, 10% glycerol, 0.1% SDS, 0.5% DCA, 2 mM EDTA, 1% Triton X-100) following treatment. Either 10 μg of ephrin-A1-Fc, or […] of EphA2 mouse monoclonal antibody (Clone D7, Millipore) were used, and mouse IgG was used as a negative control for EphA2 IP.
Activation of EphA2 receptor by ephrin-A1 ligand inhibits both ERK1/2 and Akt kinase activities in most normal cells and a subset of cancer cells. […] We first tested this by utilizing the A172 glioma cells engineered to overexpress EphA2 receptor (A172-A2).

For assay [2], the system named is A172-A2 glioma cells. Kind of assay: Haptotactic cell migration toward fibronectin, A172-A2. As to conditions: A172-A2, 4 hours. From the text:
One of the well-established functions of Eph receptors is the ligand-dependent repulsive guidance of cell migration. As a ligand-mimicking agonist for EphA2, doxazosin is expected to activate EphA2 on tumor cells and repulse migrating tumor cells in vitro. To test this possibility, we first investigated the effects of doxazosin on integrin-mediated haptotactic cell migration toward fibronectin in a modified Boyden chamber cell migration assay. […] The inhibitory effects were observed when doxazosin was presented either in the bottom chamber, or in both top and bottom chambers in the Transwell assay system. […] Therefore, doxazosin can recapitulate a key function attributed to its native ligands, i.e., negative regulation of cell migration.

For assay [3], the target named is EphA2 (Homo sapiens, UniProt P29317). Kind of assay: EphA2 activation in MDA-231-A2 cells (pEphA/B immunoblot). Set-up: expressed in transfected cells; host or cells: MDA-MB-231 (MDA-231-A2 / MDA-MB-231-A2), puromycin selected; EphA2 activation in compound screen: dose or concentration left out as unconfirmed. The procedure: Cells were plated in 24-well dishes at a density of 100,000 cells/well and grown for 24 hours prior to stimulation with appropriate compounds and ephrins for the given amounts of time. Compounds were prepared in DMSO at 500 times the final concentrations and 0.2% DMSO was used as vehicle control. Following treatment, cells were lysed directly in SDS Gel Loading Buffer and immunoblotted as described previously. Immunoprecipitation and immunofluorescence staining was performed as described. For immunoprecipitation, 300,000 cells/well were plated in 6-well dishes and lysed in modified RIPA Buffer (20 mM Tris-HCl pH 7.4, 20 mM NaF, 150 mM NaCl, 10% glycerol, 0.1% SDS, 0.5% DCA, 2 mM EDTA, 1% Triton X-100) following treatment. Either 10 μg of ephrin-A1-Fc, or […] of EphA2 mouse monoclonal antibody (Clone D7, Millipore) were used, and mouse IgG was used as a negative control for EphA2 IP. To identify small molecule agonists for EphA2, we took a structure-based in silico screening approach. […] This notion was confirmed recently by determination of the crystal structure of the EphA2/ephrin-A1 complex (FIG. 1B). The size falls in the range of common drugs, making EphA2 LBD a desirable target for drug discovery. Toward this end, we initiated in silico screening to search for small molecules that interact favorably with the ligand-binding pocket of EphA2 derived from molecular modeling before the crystal structure became available. Multiple conformations for each structure were generated with OMEGA (OpenEye) and each conformation was docked individually using DOCK. Our initial screening of over 750,000 compounds identified a number of small molecules that could potentially interact with the ligand-binding pocket. The commercially available top-scoring compounds were screened for their ability to induce EphA2 activation in MDAMB-231 breast cancer cells. Because MDA-MB-231 cells express endogenous EphA2 as well as other Eph receptors, including EphA1, we overexpressed EphA2 in order to minimize the contribution from other Eph receptors in our analysis. […] Total cell lysates were probed with a previously described antibody that recognizes the activated Eph receptors. […] Originally developed as an antagonist for α1-adrenoreceptor, doxazosin (FIG. 1D) is an FDA-approved drug (CARDURA) for treating hypertension and benign prostate hyperplasia (BPH). To confirm specific EphA2 activation by doxazosin, we analyzed levels of activated Eph receptor in MDA-231-A2 cells following treatment with multiple doses of doxazosin and EphA2 immunoprecipitation.
Chain of EphA2 (P29317 24-976): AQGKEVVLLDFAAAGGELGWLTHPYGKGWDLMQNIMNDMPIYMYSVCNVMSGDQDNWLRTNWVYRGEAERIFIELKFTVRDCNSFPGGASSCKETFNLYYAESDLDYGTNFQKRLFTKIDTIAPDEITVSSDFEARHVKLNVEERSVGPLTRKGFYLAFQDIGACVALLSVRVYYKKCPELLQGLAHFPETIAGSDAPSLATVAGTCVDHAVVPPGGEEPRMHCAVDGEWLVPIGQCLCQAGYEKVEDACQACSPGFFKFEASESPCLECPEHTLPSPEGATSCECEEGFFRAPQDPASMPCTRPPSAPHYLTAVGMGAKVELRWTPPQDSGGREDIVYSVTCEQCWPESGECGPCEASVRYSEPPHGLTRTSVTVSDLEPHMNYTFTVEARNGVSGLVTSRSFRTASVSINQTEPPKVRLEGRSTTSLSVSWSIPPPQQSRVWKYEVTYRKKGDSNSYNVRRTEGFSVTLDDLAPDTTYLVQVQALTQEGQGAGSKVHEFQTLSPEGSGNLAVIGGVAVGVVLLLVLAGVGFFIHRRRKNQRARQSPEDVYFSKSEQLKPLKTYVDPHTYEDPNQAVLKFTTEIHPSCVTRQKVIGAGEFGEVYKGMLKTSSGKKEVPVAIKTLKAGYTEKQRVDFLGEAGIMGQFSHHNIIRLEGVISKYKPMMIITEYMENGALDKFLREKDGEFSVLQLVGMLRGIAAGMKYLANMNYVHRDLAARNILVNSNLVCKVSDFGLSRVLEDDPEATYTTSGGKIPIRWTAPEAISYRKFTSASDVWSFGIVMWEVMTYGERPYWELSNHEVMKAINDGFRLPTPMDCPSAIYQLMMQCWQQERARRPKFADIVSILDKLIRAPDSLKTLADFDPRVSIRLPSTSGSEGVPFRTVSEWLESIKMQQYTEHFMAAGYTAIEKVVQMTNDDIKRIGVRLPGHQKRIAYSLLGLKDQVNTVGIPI

The mark [4] stands for this setting: MDA-231-A2 cells, single 50 μM dose.

For `COc1cc2nc(N3CCN(C(=O)C4COc5ccccc5O4)CC3)nc(N)c2cc1OC` (stereo not shown) [Doxazosin, 2-[4-(2,3-Dihydro-1,4-benzodioxine-2-carbonyl)piperazin-1-yl]-6,7-dimethoxyquinazolin-4-amine], the “inhibition of Akt and ERK1/2 activation” value in assay [1] was “significant inhibition of Akt and ERK1/2 activation”. Further, in assay [2], the “haptotactic cell migration toward fibronectin” value is listed as “dose-dependent inhibition of cell migration”. Also, in assay [3] (MDA-231-A2 cells pretreated with 1 μM phenoxybenzamine), the “EphA2 activation after phenoxybenzamine pretreatment versus no pretreatment” value was “No difference in EphA2 activation”. In assay [3] (MDA-231-A2 cells, high doses), the EphA2 degradation result was “degradation of EphA2 following exposure to high doses of doxazosin”. In addition, in assay [3] (setting [4]), the “earliest time of significant EphA2 activation” value was found to be 5 min and the “time of peak EphA2 activation” value is given as “around 30 min”. The “EphA2 activation in compound screen” value in assay [3] (MDA-231-A2 cells, total cell lysates) is on record as “activated EphA2 to the greatest extent”.
